Measurements taken from ChEMBL document CHEMBL1201862, “PubChem BioAssay data set” (2004).
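All cell lines were grown in 96-well plates and treated with compound for 48 hours. Abbreviation: GI50, concentration required for 50% inhibition of growth.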 The source made the active and inactive calls. Rule as the data show it: active = GI50 up to about 1.1 µM and inactive = higher.

Tests used:
Test in all cases: NCI tumour cell line growth inhibition, 48 h
A498 = test system: A498
ACHN = test system: ACHN
SNB-75 = test system: SNB-75
RXF 393 = test system: RXF 393
NCI-H522 = test system: NCI-H522
SW-620 = test system: SW-620
NCI-H226 = test system: NCI-H226
KM12 = test system: KM12
EKVX = test system: EKVX
TK-10 = test system: TK-10
MCF7 = test system: MCF7
OVCAR-8 = test system: OVCAR-8
SK-MEL-2 = test system: SK-MEL-2
A549 = test system: A549
SNB-19 = test system: SNB-19
SF-295 = test system: SF-295
HCT-116 = test system: HCT-116
LOX IMVI = test system: LOX IMVI
K562 = test system: K562

Measured: GI50

C[C@]12CC[C@@H]3c4ccc(O)cc4CC[C@H]3[C@@H]1C/C(=C\c1ccncc1)[C@@H]2O
inactive: A498 5.78 µM | ACHN 11.2 µM | SNB-75 2.98 µM | RXF 393 2.5 µM | NCI-H522 3.73 µM | SW-620 9.27 µM | NCI-H226 10.7 µM | KM12 5.98 µM | EKVX 18.5 µM | TK-10 22.9 µM | MCF7 10.1 µM | OVCAR-8 11.4 µM | SK-MEL-2 11.4 µM | A549 7.36 µM | SNB-19 23.4 µM | SF-295 4.29 µM | HCT-116 10.9 µM

CN1CCN(CCCBr)CC1
inactive: A498 > 100 µM | LOX IMVI > 100 µM | ACHN > 100 µM | K562 > 100 µM | SNB-75 > 100 µM | RXF 393 > 100 µM | NCI-H522 > 100 µM | SW-620 > 100 µM | NCI-H226 > 100 µM | KM12 > 100 µM | EKVX > 100 µM | TK-10 > 100 µM | MCF7 > 100 µM | OVCAR-8 > 100 µM | SK-MEL-2 > 100 µM | A549 > 100 µM | SNB-19 > 100 µM | SF-295 > 100 µM | HCT-116 > 100 µM

Nc1ccccc1/C=C\c1ccccc1
inactive: ACHN > 100 µM | K562 > 100 µM | SNB-75 > 100 µM | RXF 393 > 100 µM | SW-620 > 100 µM | NCI-H226 > 100 µM | KM12 > 100 µM | EKVX > 100 µM | TK-10 > 100 µM | MCF7 > 100 µM | OVCAR-8 > 100 µM | A549 > 100 µM | SNB-19 > 100 µM | SF-295 > 100 µM | HCT-116 > 100 µM

CNC(=O)CN(C)C(=O)CCC(=O)N(C)C
inactive: A498 > 100 µM | LOX IMVI > 100 µM | ACHN > 100 µM | K562 > 100 µM | SNB-75 > 100 µM | NCI-H522 > 100 µM | SW-620 > 100 µM | NCI-H226 > 100 µM | KM12 > 100 µM | EKVX > 100 µM | TK-10 > 100 µM | MCF7 > 100 µM | OVCAR-8 > 100 µM | SK-MEL-2 > 100 µM | A549 > 100 µM | SNB-19 > 100 µM | SF-295 > 100 µM | HCT-116 > 100 µM

CCSc1cc(=O)n(C)c(=O)n1C
inactive: A498 > 100 µM | LOX IMVI > 100 µM | ACHN > 100 µM | SNB-75 42.7 µM | RXF 393 > 100 µM | NCI-H522 > 100 µM | SW-620 > 100 µM | NCI-H226 > 100 µM | KM12 > 100 µM | EKVX > 100 µM | TK-10 > 100 µM | MCF7 > 100 µM | OVCAR-8 > 100 µM | SK-MEL-2 > 100 µM | A549 > 100 µM | SNB-19 > 100 µM | SF-295 > 100 µM | HCT-116 > 100 µM

Nc1nc(N)c2ncn(Cc3c(Cl)cccc3Cl)c2n1
inactive: A498 > 100 µM | LOX IMVI > 100 µM | ACHN > 100 µM | SNB-75 1.6 µM | RXF 393 > 100 µM | NCI-H522 > 100 µM | SW-620 > 100 µM | NCI-H226 > 100 µM | KM12 > 100 µM | EKVX 28.4 µM | TK-10 > 100 µM | MCF7 > 100 µM | OVCAR-8 > 100 µM | SK-MEL-2 > 100 µM | A549 > 100 µM | SNB-19 > 100 µM | SF-295 > 100 µM | HCT-116 > 100 µM

CC(C)(C)[Si](C)(C)OCCc1ccccc1C1CC2(S(=O)(=O)c3ccccc3)ON1CC2S(=O)(=O)c1ccccc1 (stereo not drawn)
inactive: A498 > 100 µM | ACHN > 100 µM | K562 > 100 µM | SNB-75 > 100 µM | RXF 393 > 100 µM | SW-620 > 100 µM | NCI-H226 > 100 µM | KM12 > 100 µM | EKVX > 100 µM | TK-10 > 100 µM | MCF7 60.5 µM | OVCAR-8 > 100 µM | SK-MEL-2 > 100 µM | A549 > 100 µM | SNB-19 > 100 µM | SF-295 > 100 µM | HCT-116 > 100 µM

O=C1Nc2ccccc2/C1=N/Nc1ncccc1[N+](=O)[O-]
inactive: A498 71.3 µM | LOX IMVI 7.55 µM | ACHN 4.69 µM | K562 3.95 µM | SNB-75 1.39 µM | NCI-H522 9.71 µM | SW-620 8.13 µM | NCI-H226 13.6 µM | KM12 3.42 µM | EKVX 5.08 µM | TK-10 14.1 µM | MCF7 3.19 µM | OVCAR-8 17.6 µM | SK-MEL-2 20.9 µM | A549 18 µM | SNB-19 19.9 µM | SF-295 17.2 µM | HCT-116 4.92 µM

CSCCC(NC(=O)Cc1ccc(C(=O)c2ccccc2)cc1)C(=O)N1CCN(CCCCN2c3ccccc3Sc3cc(N=[N+]=[N-])ccc32)CC1 (stereo not drawn)
inactive: A498 72.3 µM | LOX IMVI > 100 µM | ACHN > 100 µM | K562 > 100 µM | RXF 393 89.9 µM | NCI-H522 92 µM | NCI-H226 78.2 µM | KM12 20.4 µM | EKVX > 100 µM | TK-10 > 100 µM | MCF7 73.3 µM | SK-MEL-2 > 100 µM | SF-295 47.6 µM | HCT-116 65.8 µM

Clc1ccc(OCc2nn3c(CCc4nnc5sc(COc6ccc(Cl)cc6)nn45)nnc3s2)cc1
inactive: A498 11.9 µM | LOX IMVI 37.2 µM | ACHN 15.1 µM | K562 9.4 µM | RXF 393 23.8 µM | NCI-H522 5.62 µM | SW-620 25.2 µM | NCI-H226 30.3 µM | KM12 18 µM | EKVX 27.7 µM | TK-10 26.4 µM | MCF7 21.4 µM | OVCAR-8 14.5 µM | SK-MEL-2 25.7 µM | SF-295 24.5 µM | HCT-116 21.9 µM

Cc1c(C)c(C)c(Cn2[nH]c(=O)n(C)c2=O)c(C)c1C
inactive: A498 > 100 µM | LOX IMVI > 100 µM | ACHN > 100 µM | K562 > 100 µM | SNB-75 > 100 µM | NCI-H522 > 100 µM | SW-620 > 100 µM | NCI-H226 > 100 µM | KM12 > 100 µM | EKVX > 100 µM | TK-10 > 100 µM | MCF7 > 100 µM | OVCAR-8 > 100 µM | SK-MEL-2 > 100 µM | A549 > 100 µM | SNB-19 > 100 µM | SF-295 > 100 µM | HCT-116 > 100 µM
